Data: paper PMC12040169 (PLOS Biology, 2025)

Test: in vitro
Details: human, hela cells, % viability

| SMILES | viability at 28.5 h, 10 µM [%] |
| --- | --- |
| O=C(CS(=O)(=O)Cc1ccccc1)Nc1ccc(S(=O)(=O)N2CCOCC2)cc1 [CBK266658] | 88.8 |
| OCCN1CCN(c2nc(NCC3CCCO3)c3ccccc3n2)CC1 (stereo not drawn) [CBK266659C] | 99.1 |
| CC1CCCCC1NC(=O)CSc1nnc(CN2CCOCC2)n1C (stereo not drawn) [CBK266662] | 102 |
| COc1ccccc1Nc1nc(N)c2ccccc2n1 [CBK266665C] | 90.4 |
| CCN1CCN(C(=O)CN(CCc2ccccc2)S(C)(=O)=O)CC1 [CBK266666] | 91.8 |
| OCCNc1nc(N2CCN(Cc3ccccc3)CC2)nc2ccccc12 [CBK266667C] | 92.5 |
| CCN1CCN(C(=O)CN(Cc2ccccc2)S(=O)(=O)c2c(C)cc(C)cc2C)CC1 [CBK266670] | 98.1 |
| COc1ccccc1NC(=O)C(=O)NCCc1c[nH]c2ccccc12 [CBK266672] | 108 |
| CCN1CCN(S(=O)(=O)c2cccc([N+](=O)[O-])c2)CC1 [CBK266675] | 83.8 |
| O=[N+]([O-])c1cccc(S(=O)(=O)NCCCn2ccnc2)c1 [CBK266676] | 91.1 |
| COc1ccc2nc(NC(=N)NC(=S)Nc3ccc(Cl)cc3)nc(C)c2c1 [CBK266677] | 88.3 |
| O=C(NCc1cccnc1)C1CCC(Cn2c(=S)[nH]c3ccccc3c2=O)CC1 (stereo not drawn) [CBK266678] | 87.9 |
| COc1cc(C)nc(NC(=O)COc2ccc(Cl)cc2C)n1 [CBK266681] | 106 |
| CCN1CCN(c2ccc(NC(=O)c3ccc(OCc4ccccc4)cc3)cc2Cl)CC1 [CBK266683] | 78 |
| Cc1cc(Oc2ccccc2)nc(Oc2ccc(OCC(N)=O)nn2)n1 [CBK266687] | 98.5 |
| COC(=O)C(C)(C)C1c2cc(Br)ccc2OC(=O)C1C(=O)c1ccccc1 (stereo not drawn) [CBK266690] | 102 |
| NS(=O)(=O)c1ccc(S(=O)(=O)NCCc2c[nH]c3ccccc23)cc1 [CBK266691] | 82.2 |
| O=C(CN1C(=O)c2ccccc2C1=O)Nc1ccc(S(=O)(=O)N2CCCCCC2)cc1 [CBK266693] | 91.7 |
| Nc1nnc(SCC(=O)N2CCN(C(c3ccccc3)c3ccccc3)CC2)n1-c1ccccc1 [CBK266696] | 108 |
| Cc1ccccc1OCC(O)Cn1c(=N)n(CCN2CCCCC2)c2ccccc21 (stereo not drawn) [CBK266698C] | 98.1 |
| Cc1nc(NS(=O)(=O)c2ccccc2)sc1NC(=O)Nn1cnnc1 [CBK266699] | 85.4 |

| SMILES | viability at 28.5 h, 10 µM [%] |
| --- | --- |
| O=C(Cn1cc(C(=S)N2CCOCC2)c2ccccc21)Nc1ccc2c(c1)OCO2 [CBK266703] | 94.6 |
| CSc1cccc(NC(=O)CN(C)S(=O)(=O)c2ccc3ccccc3c2)c1 [CBK266708] | 86.2 |
| CCc1cc2c(NC(CCSC)C(=O)O)nc(C)nc2s1 (stereo not drawn) [CBK266709] | 90.3 |
| Cc1ccc(-c2nnc3c4ccccc4c(C)nn23)cc1S(=O)(=O)NC(C)c1ccccc1 (stereo not drawn) [CBK266715] | 94.5 |
| Cc1ccc(NC2=NC(C(=O)Nc3ccc(C)c(C)c3)CC(=O)N2)cc1 (stereo not drawn) [CBK266718] | 96.9 |
| COc1ccc(Cl)cc1NC(=O)CN(C1CCCCC1)S(C)(=O)=O [CBK266720] | 105 |
| COC(=O)c1c(NC(=O)COc2ccccc2C(C)C)sc2c1CCCC2 [CBK266722] | 93.5 |
| Cc1sc2c(c1C)c(=O)nc1scc(CC(=O)NCCO)n12 [CBK266726] | 96.3 |
| Cc1ccc(S(=O)(=O)/N=C(\Nc2nc3ccccc3o2)NS(=O)(=O)c2ccc(C)cc2)cc1 [CBK266728] | 86 |
| Cc1ccc(S(=O)(=O)N(C)CC(=O)Nc2ncc(C(F)(F)F)cc2Cl)cc1 [CBK266729] | 94.8 |
| Cc1cc(=O)oc2c1c(C)nn2-c1nn[nH]n1 [CBK266732] | 91 |
| COc1ccccc1Nc1nc(N)nc(CSc2ncccn2)n1 [CBK266734] | 104 |
| Cc1cc(/C=C(/C#N)c2ccc([N+](=O)[O-])cc2)c(C)n1-c1ccc(S(N)(=O)=O)cc1 [CBK266737] | 108 |
| Cc1nc(N2CCN(Cc3ccc4c(c3)OCO4)CC2)c2c(C)c(C)sc2n1 [CBK266739] | 100 |
| COc1ccc(OCC(=O)Nc2cccc(-c3nnc4c5ccccc5c(C)nn34)c2)cc1 [CBK266743] | 105 |
| O=C1Nc2ccc(S(=O)(=O)NCC(O)c3ccc([N+](=O)[O-])cc3)c3cccc1c23 (stereo not drawn) [CBK266745] | 88.1 |
| CN(CC(=O)Nc1cccc(Cl)c1)S(=O)(=O)c1ccc2ccccc2c1 [CBK266746] | 105 |
| COc1ccc(N2CCN(/C(=N/S(=O)(=O)c3ccccc3)Nc3nc(C)cc(C)n3)CC2)cc1 [CBK266750] | 88.7 |
| O=C(CSc1nnc(-c2ccncc2)n1-c1ccccc1)c1ccc(Br)cc1 [CBK266758] | 93.9 |
| CC(Oc1ccc(Br)cc1)C(=O)Nc1ccc(C(N)=O)cc1 (stereo not drawn) [CBK266760] | 112 |
| Cc1ccc(O)c(NC(=O)c2ccccc2-c2ccccc2C(=O)O)c1 [CBK266763] | 82.9 |

| SMILES | viability at 28.5 h, 10 µM [%] |
| --- | --- |
| Cc1ccc([N+](=O)[O-])cc1NC(=O)c1cc(S(=O)(=O)N(C)C)c(Cl)cc1Cl [CBK266764] | 105 |
| CC(CNC(=O)COc1cc(Cl)c(Cl)cc1Cl)CN(C)C (stereo not drawn) [CBK266766] | 88.1 |
| CC(Oc1ccc(Cl)cc1Cl)C(=O)Nc1ccc2oc(-c3ccncc3)nc2c1 (stereo not drawn) [CBK266768] | 109 |
| COc1ccc(C(=O)Nc2ccccc2)cc1S(=O)(=O)Nc1cccnc1 [CBK266771] | 94.4 |
| CCCn1nnc(NC(=O)C(C)Oc2ccc(Cl)cc2Cl)n1 (stereo not drawn) [CBK266772] | 98.6 |
| Cc1cc(Cl)c(S(=O)(=O)Nc2cccnc2)cc1OCC(=O)NC1CCCCC1 [CBK266773] | 92.7 |
| Cc1cccc(-c2nnc(-c3ccc(NC(=O)CSCc4ccccc4)cc3)o2)c1 [CBK266775] | 109 |
| O=C(CCSc1c(Cl)cccc1[N+](=O)[O-])Nc1ccc(Br)c2cccnc12 [CBK266777] | 101 |
| Cc1ccc(C(=O)COc2ccc(/C=C(\C#N)c3nc(-c4ccc5c(c4)OCO5)cs3)cc2)cc1 [CBK266778] | 101 |
| CC(Oc1ccc(Cl)cc1Cl)C(=O)Nc1ccc(N2CCN(C)CC2)cc1 (stereo not drawn) [CBK266780] | 94.1 |
| Cc1cc(Cl)c(S(=O)(=O)N2CCCC2)cc1OCC(=O)NC1CCCCC1 [CBK266781] | 93.9 |
| CN(C)S(=O)(=O)c1cc(C(=O)Nc2ccc(C(=O)O)cc2)c(Cl)cc1Cl [CBK266783] | 99.5 |
| O=C(Nc1cc(Cl)ccc1O)c1ccc(C(=O)Nc2cc(Cl)ccc2O)cc1 [CBK266784] | 94.9 |
| Cc1cc(Cl)c(S(=O)(=O)Nc2ccc3c(c2)OCCO3)cc1OCC(=O)NC1CCCCC1 [CBK266786] | 95.5 |
| COc1ccc(-c2nc3ccccc3o2)cc1NC(=O)C(C)Oc1ccc(Cl)cc1Cl (stereo not drawn) [CBK266787] | 76.4 |
| CC1CCN(S(=O)(=O)c2cccc(C(=O)N3CCC(C(=O)O)CC3)c2)CC1 [CBK266790] | 87.4 |
| COc1cc(OC)c(NC(=O)C(C)Oc2ccc(Br)cc2)cc1Cl (stereo not drawn) [CBK266791] | 97 |
| O=C(NNC(=O)c1cccnc1)c1ccc(NC(=O)c2ccco2)cc1 [CBK266792] | 111 |
| CC1CCN(S(=O)(=O)c2cccc(C(=O)NNC(=O)c3ccco3)c2)CC1 [CBK266796] | 92.2 |
| Cc1cc(Cl)c(S(=O)(=O)N2CCN(c3ccccn3)CC2)cc1OCC(=O)NC1CCCCC1 [CBK266798] | 90.7 |
| Cc1nnc2sc(-c3ccc(NC(=O)CSc4ccc(Cl)cc4)cc3)nn12 [CBK266800] | 108 |

| SMILES | viability at 28.5 h, 10 µM [%] |
| --- | --- |
| COc1ccc(S(=O)(=O)Nc2ccc(S(=O)(=O)Nc3nccs3)cc2)c([N+](=O)[O-])c1 [CBK266801] | 95.6 |
| Cc1nnc2sc(-c3ccc(NC(=S)NC(=O)c4ccc(-c5ccccc5[N+](=O)[O-])o4)cc3)nn12 [CBK266803] | 86.4 |
| O=C(CCc1nc2ccccc2nc1O)OCc1cccc([N+](=O)[O-])c1 [CBK266804] | 85 |
| COc1ccc(/C(N)=N/OC(=O)C(C)Oc2ccc(Br)cc2)cc1OC (stereo not drawn) [CBK266807] | 95.6 |
| COc1ccc2c(c1)c(=O)oc1c(CN3CCCC3)c(O)ccc12 [CBK266814] | 95.3 |
| Cc1nnc(SCC(=O)Nc2cc(C(F)(F)F)ccc2N2CCOCC2)o1 [CBK266815] | 109 |
| CCOc1cc(S(=O)(=O)NCc2ccccn2)ccc1Cl [CBK266817] | 99.2 |
| CCCNC(CC(=O)Nc1ccccc1)C(=O)O (stereo not drawn) [CBK266819] | 95.3 |
| Cc1cccc(NC(=O)C(CC(=O)O)NCc2ccccc2)c1 (stereo not drawn) [CBK266821] | 87.3 |
| Cc1c(Cl)cccc1NC(=S)NNC(=O)C(C)Oc1ccc(F)cc1F (stereo not drawn) [CBK266823] | 97.8 |
| Nc1ccccc1-c1ccccc1NC(=O)C(=O)O [CBK266824] | 110 |
| CCN1CCN(C(=O)c2ccccc2N(Cc2ccccc2)S(=O)(=O)c2ccc(C)cc2)CC1 [CBK266827] | 91.6 |
| CS(=O)(=O)N(CC(=O)Nc1ccc(S(=O)(=O)N2CCCCCC2)cc1)c1ccccc1F [CBK266829] | 92.9 |
| O=C(CC(NC1CCCC1)C(=O)O)Nc1cccc(Cl)c1 (stereo not drawn) [CBK266831] | 105 |
| COc1ccc(-n2c(S)nnc2-c2cccs2)cc1 [CBK266832] | 103 |
| COc1ccc(CCNC(=O)c2ccccc2N(C)S(C)(=O)=O)cc1 [CBK266833] | 104 |
| CSc1ccccc1NC(=O)CN(c1ccc(F)cc1)S(=O)(=O)c1ccc2c(c1)OCCO2 [CBK266836] | 101 |
| Cn1c(=O)c2ncn(CC(=O)Nc3cccc(C(=O)O)c3)c2n(C)c1=O [CBK266838] | 98.4 |
| O=c1[nH]c(/C=C\c2cccc(OCCOc3ccccc3)c2)c([N+](=O)[O-])c(=O)[nH]1 [CBK266840] | 105 |
| COc1nc(-c2ccccc2)ccc1-c1noc(COc2ccccc2)n1 [CBK266841] | 91.8 |
| O=C(NNC(=S)NCC1CCCO1)c1cccnc1 (stereo not drawn) [CBK266842] | 97.5 |
